Data published in patent publication US11000033B2, “Ketone or oxime compound, and herbicide” (NISSAN CHEMICAL CORPORATION, priority 2014, dated 2021).

Experiments:
Assay type in all cases: in vivo
transplanted rice plant = experiment: Test Example 1: effect on crop, application before weed generation in submerged conditions (symbol a); conditions: application herbicide amount 320 g/ha
In short: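 Rice at 2.5 leaf stage transplanted into submerged soil (4 cm depth) sown with three weed species; herbicide applied before weed emergence.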

[1] = system: Echinochloa crus-galli var. crus-galli; experiment: Test Example 3: herbicidal effect by foliage application, Wagner pot (symbol H); conditions: application herbicide amount 320 g/ha; for H (Echinochloa crus-galli var. crus-galli) herbicidal effect grade: Table 24
In short: (§1)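 Steps: fill pot with alluvial soil; add water to 0.1–0.5 cm depth; sow weed and rice seed; grow 14 days at 25–30 °C; spray diluted emulsion over the leaves; rate effect after 3 weeks.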

Leptochloa chinensis = experiment: Test Example 3: herbicidal effect by foliage application, Wagner pot (symbol D); conditions: application herbicide amount 320 g/ha; for D (Leptochloa chinensis) herbicidal effect grade: Table 24
In short: as §1

Cyperus difformis = experiment: Test Example 3: herbicidal effect by foliage application, Wagner pot (symbol E); conditions: application herbicide amount 320 g/ha; for E herbicidal effect grade: Table 24
In short: as §1

Alopecurus myosuroides = experiment: Test Example 4: herbicidal effect by soil treatment (symbol J); conditions: for J: Alopecurus myosuroides, herbicidal effect grade: 320 g/ha; for Herbicidal effect grade, J: Alopecurus myosuroides: application herbicide amount 320 g/ha
In short: (§2)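 Seeds were sown in sterilized diluvial soil, covered with about 1.5 cm of soil, and the soil surface was sprayed with a water-diluted emulsion of the compound at a predetermined rate. Plants grew in a greenhouse at 25° C. to 30° C.; effects were scored visually 3 weeks after application.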

Apera spica-venti [2] = experiment: Test Example 4: herbicidal effect by soil treatment (symbol L); conditions: for L: Apera spica-venti, herbicidal effect grade: 320 g/ha; for Herbicidal effect grade, L: Apera spica-venti: application herbicide amount 320 g/ha
In short: as §2

Amaranthus retroflexus = experiment: Test Example 4: herbicidal effect by soil treatment (symbol N); conditions: for N: Amaranthus retroflexus, herbicidal effect grade: 320 g/ha; for Herbicidal effect grade, N: Amaranthus retroflexus: application herbicide amount 320 g/ha
In short: as §2

Stellaria media = experiment: Test Example 4: herbicidal effect by soil treatment (symbol P); conditions: for P: Stellaria media, herbicidal effect grade: 320 g/ha; for Herbicidal effect grade, P: Stellaria media: application herbicide amount 320 g/ha
In short: as §2

Veronica persica = experiment: Test Example 4: herbicidal effect by soil treatment (symbol R); conditions: for R: Veronica persica, herbicidal effect grade: 320 g/ha; for Herbicidal effect grade, R: Veronica persica: application herbicide amount 320 g/ha
In short: as §2

soybean [3] = experiment: Test Example 4: effect on crop by soil treatment (symbol d); conditions: for d: soybean, effect grade on crop: 320 g/ha; for Effect on crop grade, d: soybean: application herbicide amount 320 g/ha
In short: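 Diluvial soil (sterilized) in boxes; seeds placed spot-wise alongside weed species; ~1.5 cm covering soil. Greenhouse, 25–30° C.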

Setaria viridis = experiment: Test Example 5: herbicidal effect by foliage application, plastic box (symbol G); conditions: 320 g/ha, 3 weeks after application
In short: (§3)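 Emulsion formulation, diluted with water to the intended rate, was applied uniformly to leaves by small sprayer. Recipients were 14-day greenhouse-grown seedlings (25° C. to 30° C.). Assessment followed at 3 weeks.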

[4] = system: Echinochloa crus-galli var. crus-galli; experiment: Test Example 5: herbicidal effect by foliage application, plastic box (symbol H); conditions: 320 g/ha, 3 weeks after application
In short: as §3

Apera spica-venti [5] = experiment: Test Example 5: herbicidal effect by foliage application, plastic box (symbol L); conditions: 320 g/ha, 3 weeks after application
In short: as §3

Abutilon theophrasti = experiment: Test Example 5: herbicidal effect by foliage application, plastic box (symbol M); conditions: 320 g/ha, 3 weeks after application
In short: as §3

soybean [6] = experiment: Test Example 5: effect on crop by foliage application, plastic box (symbol d); conditions: 320 g/ha, 3 weeks after application
In short: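 In a plastic box 7 cm deep filled with sterilized diluvial soil, seeds of crops and weeds such as Digitaria ciliaris, Avena fatua and Amaranthus retroflexus are sown in spots and covered with about 1.5 cm of soil before greenhouse growth at 25–30° C.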

SMILES | Effect grade on crop, a: transplanted rice plant (transplanted rice plant) | herbicidal effect on H (Echinochloa crus-galli var. crus-galli), grade 0-5 [1] | herbicidal effect on D (Leptochloa chinensis), grade 0-5 (Leptochloa chinensis) | herbicidal effect on E, grade 0-5 (Cyperus difformis) | J: Alopecurus myosuroides, herbicidal effect grade (Alopecurus myosuroides) | L: Apera spica-venti, herbicidal effect grade (Apera spica-venti [2]) | N: Amaranthus retroflexus, herbicidal effect grade (Amaranthus retroflexus) | P: Stellaria media, herbicidal effect grade (Stellaria media) | R: Veronica persica, herbicidal effect grade (Veronica persica) | d: soybean, effect grade on crop (soybean [3]) | G: Setaria viridis, herbicidal effect (criteria 0-5) (Setaria viridis) | H: Echinochloa crus-galli var. crus-galli, herbicidal effect (criteria 0-5) [4] | L: Apera spica-venti, herbicidal effect (criteria 0-5) (Apera spica-venti [5]) | M: Abutilon theophrasti, herbicidal effect (criteria 0-5) (Abutilon theophrasti) | d: soybean, effect on crop (criteria 0-5) (soybean [6]) | a (transplanted rice plant) effect on crop grade (transplanted rice plant) | H (Echinochloa crus-galli var. crus-galli) herbicidal effect grade [1] | D (Leptochloa chinensis) herbicidal effect grade (Leptochloa chinensis) | E herbicidal effect grade (Cyperus difformis) | Herbicidal effect grade, J: Alopecurus myosuroides (Alopecurus myosuroides) | other results
CC(CC1CC(O)=C(c2c(C)cc(C)cc2C)C1=O)=NOCC1OCCO1 (stereo not drawn) [1-111] | 5 (Herbicidal ratio of 90% or more (almost completely withered)) | 5 (Herbicidal ratio of 90% or more (almost completely withered)) | 5 (Herbicidal ratio of 90% or more (almost completely withered)) | 5 (Herbicidal ratio of 90% or more (almost completely withered)) | 5 (Herbicidal ratio of 90% or more (almost completely withered)) | 5 (Herbicidal ratio of 90% or more (almost completely withered)) | 0 (Herbicidal ratio of 5% or lower (almost no effect)) | 0 (Herbicidal ratio of 5% or lower (almost no effect)) | 0 (Herbicidal ratio of 5% or lower (almost no effect)) | 1 (Herbicidal ratio of 5% or higher and lower than 20%) | 5 (Herbicidal ratio of 90% or more (almost completely withered)) | 5 (Herbicidal ratio of 90% or more (almost completely withered)) | 5 (Herbicidal ratio of 90% or more (almost completely withered)) | 1 (Herbicidal ratio of 5% or higher and lower than 20%) | 3 (Herbicidal ratio of 40% or higher and lower than 70%) |  |  |  |  |  | 
Cc1cc(Br)cc(C)c1C1=C(O)CC(CC(=O)C(C)C)C1=O (racemic) [10-003] |  |  |  |  |  |  |  |  |  |  |  |  |  |  |  | 3 (Herbicidal ratio of 40% or higher and lower than 70%) | 5 (Herbicidal ratio of 90% or more (almost completely withered)) | 4 (Herbicidal ratio of 70% or higher and lower than 90%) | 0 (Herbicidal ratio of 5% or lower (almost no effect)) | 3 (Herbicidal ratio of 40% or higher and lower than 70%) | Herbicidal effect grade, L: Apera spica-venti (Apera spica-venti [2]): 3 (Herbicidal ratio of 40% or higher and lower than 70%); Herbicidal effect grade, N: Amaranthus retroflexus (Amaranthus retroflexus): 0 (Herbicidal ratio of 5% or lower (almost no effect)); Herbicidal effect grade, P: Stellaria media (Stellaria media): 0 (Herbicidal ratio of 5% or lower (almost no effect)); Herbicidal effect grade, R: Veronica persica (Veronica persica): 0 (Herbicidal ratio of 5% or lower (almost no effect)); Effect on crop grade, d: soybean (soybean [3]): 0 (Herbicidal ratio of 5% or lower (almost no effect)); G: Setaria viridis, herbicidal effect grade (Setaria viridis): 5 (Herbicidal ratio of 90% or more (almost completely withered)); H: Echinochloa crus-galli var. crus-galli, herbicidal effect grade [4]: 5 (Herbicidal ratio of 90% or more (almost completely withered)); L: Apera spica-venti, herbicidal effect grade (Apera spica-venti [5]): 3 (Herbicidal ratio of 40% or higher and lower than 70%); M: Abutilon theophrasti, herbicidal effect grade (Abutilon theophrasti): 0 (Herbicidal ratio of 5% or lower (almost no effect)); d: soybean, effect on crop grade (soybean [6]): 0 (Herbicidal ratio of 5% or lower (almost no effect))
COC(=O)C(C(=O)C1CC1)C1CC(O)=C(c2c(C)cc(Br)cc2C)C1=O (mixture of isomers) [10-002] |  |  |  |  |  |  |  |  |  |  |  |  |  |  |  | 1 (Herbicidal ratio of 5% or higher and lower than 20%) | 5 (Herbicidal ratio of 90% or more (almost completely withered)) | 5 (Herbicidal ratio of 90% or more (almost completely withered)) | 3 (Herbicidal ratio of 40% or higher and lower than 70%) | 0 (Herbicidal ratio of 5% or lower (almost no effect)) | Herbicidal effect grade, L: Apera spica-venti (Apera spica-venti [2]): 3 (Herbicidal ratio of 40% or higher and lower than 70%); Herbicidal effect grade, N: Amaranthus retroflexus (Amaranthus retroflexus): 0 (Herbicidal ratio of 5% or lower (almost no effect)); Herbicidal effect grade, P: Stellaria media (Stellaria media): 0 (Herbicidal ratio of 5% or lower (almost no effect)); Herbicidal effect grade, R: Veronica persica (Veronica persica): 0 (Herbicidal ratio of 5% or lower (almost no effect)); Effect on crop grade, d: soybean (soybean [3]): 0 (Herbicidal ratio of 5% or lower (almost no effect)); G: Setaria viridis, herbicidal effect grade (Setaria viridis): 5 (Herbicidal ratio of 90% or more (almost completely withered)); H: Echinochloa crus-galli var. crus-galli, herbicidal effect grade [4]: 5 (Herbicidal ratio of 90% or more (almost completely withered)); L: Apera spica-venti, herbicidal effect grade (Apera spica-venti [5]): 4 (Herbicidal ratio of 70% or higher and lower than 90%); M: Abutilon theophrasti, herbicidal effect grade (Abutilon theophrasti): 0 (Herbicidal ratio of 5% or lower (almost no effect)); d: soybean, effect on crop grade (soybean [6]): 0 (Herbicidal ratio of 5% or lower (almost no effect))
CC(CC1CC(O)=C(c2c(C)cc(C)cc2C)C1=O)=NOCc1ccccc1[N+](=O)[O-] (stereo not drawn) [1-119] | 3 (Herbicidal ratio of 40% or higher and lower than 70%) | 5 (Herbicidal ratio of 90% or more (almost completely withered)) | 4 (Herbicidal ratio of 70% or higher and lower than 90%) | 0 (Herbicidal ratio of 5% or lower (almost no effect)) | 4 (Herbicidal ratio of 70% or higher and lower than 90%) | 5 (Herbicidal ratio of 90% or more (almost completely withered)) | 0 (Herbicidal ratio of 5% or lower (almost no effect)) | 0 (Herbicidal ratio of 5% or lower (almost no effect)) | 0 (Herbicidal ratio of 5% or lower (almost no effect)) | 0 (Herbicidal ratio of 5% or lower (almost no effect)) | 5 (Herbicidal ratio of 90% or more (almost completely withered)) | 5 (Herbicidal ratio of 90% or more (almost completely withered)) | 5 (Herbicidal ratio of 90% or more (almost completely withered)) | 1 (Herbicidal ratio of 5% or higher and lower than 20%) | 0 (Herbicidal ratio of 5% or lower (almost no effect)) |  |  |  |  |  | 
CC(CC1CC(O)=C(c2c(C)cc(C)cc2C)C1=O)=NOCC(N)=O (stereo not drawn) [1-124] | 0 (Herbicidal ratio of 5% or lower (almost no effect)) | 5 (Herbicidal ratio of 90% or more (almost completely withered)) | 5 (Herbicidal ratio of 90% or more (almost completely withered)) | 0 (Herbicidal ratio of 5% or lower (almost no effect)) | 2 (Herbicidal ratio of 20% or higher and lower than 40%) | 0 (Herbicidal ratio of 5% or lower (almost no effect)) | 0 (Herbicidal ratio of 5% or lower (almost no effect)) | 0 (Herbicidal ratio of 5% or lower (almost no effect)) | 0 (Herbicidal ratio of 5% or lower (almost no effect)) | 0 (Herbicidal ratio of 5% or lower (almost no effect)) | 2 (Herbicidal ratio of 20% or higher and lower than 40%) | 5 (Herbicidal ratio of 90% or more (almost completely withered)) | 3 (Herbicidal ratio of 40% or higher and lower than 70%) | 0 (Herbicidal ratio of 5% or lower (almost no effect)) | 0 (Herbicidal ratio of 5% or lower (almost no effect)) |  |  |  |  |  | 
